Measurements taken from patent publication US4906565A, “Method for the selective detection of microbial nucleotides” (Minnesota Mining and Manufacturing Company, priority 1986, dated 1990).

Experiments:
Format in all cases: biochemical
firefly luciferase [1] = molecular target: T1, firefly luciferase (Photinus pyralis, UniProt P08659); experiment: Effect of inhibitor on the bioluminescent assay of ATP
T1 construct: purchased Lumac/3M Lumit PM

glycerokinase = experiment: Inhibition of glycerokinase by PCMPSA in milk / orange juice samples; settings: PCMPSA 0.5 mM; for % Control: control = same without glycerol; for RLU: milk/FRA, ATP added in SRA, 15 seconds
Protocol: Protocol: Samples were prepared containing: 1000 μl milk (local distributor, half-cream, sterilized); 800 μl FRA, 200 μl of a commercially available first releasing agent which is prepared in buffer for use with samples such as fruit juices (F-NRS, Lumac/3M); and 2.45 mM MgSO4. Glycerol, if present, was at a final concentration of 1.47 mM. ATP (10 mg/ml) was added in SRA to begin each assay, and PCMPSA if present, was also in that SRA aliquot in an amount sufficient to yield a final concentration of 0.5 mM.
(§1) To begin the assay, 100 μl of SRA/ATP ±PCMPSA was added to 50 μl of the appropriate sample. After 15 seconds (the period normally allowed for microbial nucleotide extraction using SRA) 100 μl Luciferase-luciferin solution was added and ATP was measured as described earlier.
(§2) Protocol: Samples with orange juice were prepared with 500 μl orange juice (Riedel, Netherlands, no preservatives, pasteurized), 500 μl buffered FRA, 3 mM glycerol, and with or without 0.5 mM PCMPSA. These were incubated over 0, 5, 10 and 20 minutes at four different glycerokinase concentrations.
(§3) Samples with milk were prepared similarly, but using 500 μl raw milk (fresh, local farmer) and 500 μl FRA in place of buffered FRA.

hexokinase = experiment: Inhibition of hexokinase by PCMPSA, bioluminescent ATP assay; settings: PCMPSA 1.0 mM
Protocol: (§4) Protocol: Eight samples were prepared using materials described above and previously, as shown in TABLE 7-1 and incubated for various periods of time (i.e., 0, 5, 10 and […]) before aliquots were taken and assayed as described.
(§5) Protocol: Increasing concentrations of hexokinase, with and without PCMPSA were prepared according to TABLE 8-1 using materials described above and previously.

firefly luciferase [2] = molecular target: T1, firefly luciferase; experiment: Effect of inhibitor on the bioluminescent assay of ATP; remark: listed apart in the source
Protocol: Assay: from each sample triplicate 100 μl aliquots were taken. In those aliquots ATP was measured as described.
Assay: from each sample triplicate 100 μl aliquots were taken. ATP in those aliquots was measured as described.
Assay: From each sample triplicate 100 μl aliquots were taken and ATP was measured as described.
as §4, §5

acetate kinase = molecular target: T2, acetate kinase (Escherichia coli, UniProt P0A6A3); experiment: Inhibition of acetate kinase by PCMPSA; settings: PCMPSA 0.5 mM
T2 construct: purchased Boehringer Mannheim
T2 sequence (P0A6A3 1-400): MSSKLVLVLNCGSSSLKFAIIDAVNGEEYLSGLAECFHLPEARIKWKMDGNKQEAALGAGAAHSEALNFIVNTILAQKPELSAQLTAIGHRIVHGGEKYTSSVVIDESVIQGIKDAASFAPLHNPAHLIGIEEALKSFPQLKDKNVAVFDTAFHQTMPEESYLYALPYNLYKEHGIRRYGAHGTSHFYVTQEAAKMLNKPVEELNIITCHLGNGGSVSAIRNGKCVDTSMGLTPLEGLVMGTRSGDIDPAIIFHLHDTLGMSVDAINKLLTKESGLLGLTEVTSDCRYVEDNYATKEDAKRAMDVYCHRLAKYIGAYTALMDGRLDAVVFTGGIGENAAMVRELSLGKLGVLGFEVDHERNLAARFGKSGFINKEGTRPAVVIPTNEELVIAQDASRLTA
Protocol: Acetate kinase was added to initiate enzyme activity. […] ATP in those aliquots was assayed as described.

[3] = ATP inactivation by glycerokinase or apyrase in milk / orange juice samples; settings: apyrase 0.096 U/mL; raw milk:FRA 500:500 μl
Protocol: Protocol: Four samples were prepared as shown in TABLE 11-1 using materials described above and earlier, and aliquots taken at 0, 2.5, 5, 10 and 20 minutes. […]
as §1, §2, §3

[4] = PCMPSA 1.0 mM alone, no hexokinase, buffer
[5] = PCMPSA 1.0 mM alone, no hexokinase, in SRA
[6] = glycerokinase 0.42 U/ml, glycerol 1.47 mM
[7] = glycerokinase 1.04 U/ml, glycerol 1.47 mM
[8] = glycerokinase 2.06 U/ml, glycerol 1.47 mM
[9] = orange juice, glycerokinase 0.85 U/ml
[10] = orange juice, glycerokinase 2.12 U/ml
[11] = orange juice, glycerokinase 4.25 U/ml
[12] = raw milk, glycerokinase 0.85 U/ml
[13] = raw milk, glycerokinase 2.12 U/ml
[14] = raw milk, glycerokinase 4.25 U/ml
[15] = acetate kinase 1.7 U/ml, magnesium acetate 3 mM, FRA

T1 sequence (P08659 whole entry): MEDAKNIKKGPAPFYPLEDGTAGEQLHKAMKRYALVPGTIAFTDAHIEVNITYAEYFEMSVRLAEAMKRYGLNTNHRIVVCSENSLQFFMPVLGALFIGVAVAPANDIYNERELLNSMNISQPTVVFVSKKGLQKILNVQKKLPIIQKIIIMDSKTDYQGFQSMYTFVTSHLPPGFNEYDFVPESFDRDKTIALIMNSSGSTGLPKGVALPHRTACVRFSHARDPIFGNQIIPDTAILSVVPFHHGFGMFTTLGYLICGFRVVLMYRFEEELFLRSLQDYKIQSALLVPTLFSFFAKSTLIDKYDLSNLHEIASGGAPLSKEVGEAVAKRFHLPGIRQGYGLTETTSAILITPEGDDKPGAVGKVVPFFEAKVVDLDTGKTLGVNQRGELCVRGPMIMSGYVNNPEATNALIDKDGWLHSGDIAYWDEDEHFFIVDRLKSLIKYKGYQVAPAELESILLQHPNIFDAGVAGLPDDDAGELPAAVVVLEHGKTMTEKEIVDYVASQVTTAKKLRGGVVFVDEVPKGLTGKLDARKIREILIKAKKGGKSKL

**Q.** For `O=S(=O)(O)c1cc[c]([Hg][Cl])cc1` [PCMPSA, p-chloromercuriphenylsulfonic acid], which “RLU 0 min.” value (firefly luciferase [1]; [4]) is on record?
**A.** Its value is 29494 RLU.

**Q.** What about the “RLU 10 min.” value (firefly luciferase [1]; [5]) of the same compound?
**A.** The value was 25284 RLU.

**Q.** And the “interference with the bioluminescent assay of ATP (conclusion in words)” value (firefly luciferase [1]; PCMPSA alone, in SRA)?
**A.** Its value is “only very slight interference, if at all”.

**Q.** And the “% Control” value (glycerokinase; [6])?
**A.** Its value is 91%.

**Q.** And the RLU (glycerokinase; [6])?
**A.** Its RLU is 26407 RLU.

**Q.** And the RLU (glycerokinase; glycerokinase 0.42 U/ml, no glycerol (control))?
**A.** The RLU was 28957 RLU.

**Q.** And the “% Control” value (glycerokinase; [7])?
**A.** Its value is 78%.

**Q.** What about the RLU (glycerokinase; [7]) of the same compound?
**A.** Its RLU is 17213 RLU.

**Q.** And the RLU (glycerokinase; glycerokinase 1.04 U/ml, no glycerol (control))?
**A.** The RLU was 21901 RLU.

**Q.** What about the “% Control” value (glycerokinase; [8]) of the same compound?
**A.** Its value is 58%.

**Q.** And the RLU (glycerokinase; [8])?
**A.** Its RLU is 6404 RLU.

**Q.** What about the RLU (glycerokinase; glycerokinase 2.06 U/ml, no glycerol (control)) of the same compound?
**A.** The RLU was 15129 RLU.

**Q.** And the “inhibition of glycerokinase (conclusion in words)” value (glycerokinase; orange juice and milk, glycerokinase up to 4.25 U/ml)?
**A.** The value was “sufficient to inhibit even the highest concentrations of enzyme used”.

**Q.** And the “RLU after 0 min” value (glycerokinase; [9])?
**A.** Its value is 142369 RLU.

**Q.** And the “RLU after 5 min” value (glycerokinase; [9])?
**A.** Its value is 145464 RLU.

**Q.** What about the “RLU after 10 min” value (glycerokinase; [9]) of the same compound?
**A.** The value was 150927 RLU.

**Q.** What about the “RLU after 20 min” value (glycerokinase; [9]) of the same compound?
**A.** The value was 155082 RLU.

**Q.** And the “RLU after 0 min” value (glycerokinase; [10])?
**A.** Its value is 152487 RLU.

**Q.** And the “RLU after 5 min” value (glycerokinase; [10])?
**A.** The value was 143354 RLU.

**Q.** And the “RLU after 10 min” value (glycerokinase; [10])?
**A.** The value was 132269 RLU.

**Q.** What about the “RLU after 20 min” value (glycerokinase; [10]) of the same compound?
**A.** The value was 151899 RLU.

**Q.** What about the “RLU after 0 min” value (glycerokinase; [11]) of the same compound?
**A.** Its value is 116232 RLU.

**Q.** And the “RLU after 5 min” value (glycerokinase; [11])?
**A.** The value was 131999 RLU.

**Q.** And the “RLU after 10 min” value (glycerokinase; [11])?
**A.** Its value is 123137 RLU.

**Q.** What about the “RLU after 20 min” value (glycerokinase; [11]) of the same compound?
**A.** Its value is 125784 RLU.

**Q.** What about the “RLU after 0 min” value (glycerokinase; [12]) of the same compound?
**A.** Its value is 1382 RLU.

**Q.** What about the “RLU after 5 min” value (glycerokinase; [12]) of the same compound?
**A.** The value was 1494 RLU.

**Q.** And the “RLU after 10 min” value (glycerokinase; [12])?
**A.** Its value is 1348 RLU.

**Q.** What about the “RLU after 20 min” value (glycerokinase; [12]) of the same compound?
**A.** The value was 1280 RLU.

**Q.** What about the “RLU after 0 min” value (glycerokinase; [13]) of the same compound?
**A.** The value was 829 RLU.

**Q.** And the “RLU after 5 min” value (glycerokinase; [13])?
**A.** Its value is 1340 RLU.

**Q.** What about the “RLU after 10 min” value (glycerokinase; [13]) of the same compound?
**A.** Its value is 1342 RLU.

**Q.** And the “RLU after 20 min” value (glycerokinase; [13])?
**A.** Its value is 1233 RLU.

**Q.** And the “RLU after 0 min” value (glycerokinase; [14])?
**A.** Its value is 1173 RLU.

**Q.** And the “RLU after 5 min” value (glycerokinase; [14])?
**A.** Its value is 1314 RLU.

**Q.** And the “RLU after 10 min” value (glycerokinase; [14])?
**A.** The value was 1374 RLU.

**Q.** And the “RLU after 20 min” value (glycerokinase; [14])?
**A.** The value was 1028 RLU.

**Q.** What about the “inhibition of hexokinase (conclusion in words)” value (hexokinase; buffer) of the same compound?
**A.** The value was “at least partly inhibited”.

**Q.** And the “RLU 5 min.” value (hexokinase; hexokinase 0.14 U/ml, buffer)?
**A.** The value was 25884 RLU.

**Q.** What about the “RLU 10 min.” value (hexokinase; hexokinase 0.14 U/ml, buffer) of the same compound?
**A.** Its value is 23717 RLU.

**Q.** And the “RLU 15 min.” value (hexokinase; hexokinase 0.14 U/ml, buffer)?
**A.** Its value is 24771 RLU.

**Q.** What about the “RLU 5 min.” value (hexokinase; hexokinase 0.14 U, in SRA) of the same compound?
**A.** The value was 15397 RLU.

**Q.** And the “RLU 10 min.” value (hexokinase; hexokinase 0.14 U, in SRA)?
**A.** The value was 15221 RLU.

**Q.** And the “RLU 5 min.” value (hexokinase; hexokinase 0.28 U/ml, buffer)?
**A.** Its value is 19116 RLU.

**Q.** What about the “RLU 10 min.” value (hexokinase; hexokinase 0.28 U/ml, buffer) of the same compound?
**A.** Its value is 18228 RLU.

**Q.** And the “RLU 15 min.” value (hexokinase; hexokinase 0.28 U/ml, buffer)?
**A.** The value was 16919 RLU.

**Q.** And the “RLU 5 min.” value (hexokinase; hexokinase 0.28 U, in SRA)?
**A.** The value was 11674 RLU.

**Q.** What about the “RLU 10 min.” value (hexokinase; hexokinase 0.28 U, in SRA) of the same compound?
**A.** Its value is 12473 RLU.

**Q.** What about the “RLU 5 min.” value (hexokinase; hexokinase 0.70 U/ml, buffer) of the same compound?
**A.** The value was 13353 RLU.

**Q.** What about the “RLU 10 min.” value (hexokinase; hexokinase 0.70 U/ml, buffer) of the same compound?
**A.** The value was 11760 RLU.

**Q.** And the “RLU 15 min.” value (hexokinase; hexokinase 0.70 U/ml, buffer)?
**A.** Its value is 9375 RLU.

**Q.** What about the “RLU 5 min.” value (hexokinase; hexokinase 0.70 U, in SRA) of the same compound?
**A.** Its value is 4212 RLU.

**Q.** And the “RLU 10 min.” value (hexokinase; hexokinase 0.70 U, in SRA)?
**A.** Its value is 3011 RLU.

**Q.** What about the “inhibition of hexokinase (conclusion in words)” value (hexokinase; in the presence of SRA) of the same compound?
**A.** The value was “sufficiently inhibited”.

**Q.** And the “RLU 10 min.” value (firefly luciferase [2]; [4])?
**A.** The value was 29569 RLU.

**Q.** And the “RLU 15 min.” value (firefly luciferase [2]; [4])?
**A.** Its value is 29742 RLU.

**Q.** And the “RLU 0 min.” value (firefly luciferase [2]; [5])?
**A.** The value was 26457 RLU.

**Q.** What about the “interference with the bioluminescent assay (conclusion in words)” value (firefly luciferase [2]; PCMPSA alone, sample 5, buffer) of the same compound?
**A.** Its value is “does not substantially interfere”.

**Q.** And the “inhibition of acetate kinase (conclusion in words)” value (acetate kinase)?
**A.** The value was “fairly effective”.

**Q.** And the “RLU 0 min.” value (acetate kinase; [15])?
**A.** Its value is 4878 RLU.

**Q.** What about the “RLU 5 min.” value (acetate kinase; [15]) of the same compound?
**A.** The value was 2911 RLU.

**Q.** And the “RLU 10 min.” value (acetate kinase; [15])?
**A.** The value was 2263 RLU.

**Q.** What about the “RLU 15 min.” value (acetate kinase; [15]) of the same compound?
**A.** Its value is 2362 RLU.

**Q.** Which results are given for apyrase?
**A.** RLU after 0 min [3]: 64594 RLU; RLU after 2.5 min. [3]: 3272 RLU; RLU after 5 min [3]: 1130 RLU; RLU after 20 min [3]: 243 RLU
